From US5356886A, “Antiviral phosphono-alken derivatives of purines” (Beecham Group p.l.c., priority 1990, dated 1994)
≈ marks a conversion by molar mass, not a printed value. Where two headings read alike, the source gives them in different places.

What was measured:
Format in all cases: cell-based
HSV-1 = assay: Plaque Reduction Test for Herpes Simplex Virus 1 (strain SC16) in MRC-5 cells; settings: Human alphaherpesvirus 1, MRC5
Experimental: (§1) MRC-5 cells were grown to confluence in 24 well multi-dishes (well diameter=1.5 cm). The drained cell monolayers were each infected with approximately 50 infectious particles of herpes simplex virus 1 (HSV-1; strain SC16) or herpes simplex virus 2 (HSV-2; strain MS) in 100 μl of phosphate-buffered saline. The virus was adsorbed for 1 hour at room temperature. After adsorption, residual inoculum was removed from each well and replaced with 0.5 ml of Eagle's MEM containing 5% newborn calf serum and 0.9% agarose (A37). Once the agarose had set, dilutions of the test compound, which had been prepared in Eagle's MEM (containing 5% newborn calf serum), were added, each well receiving 0.5 ml of liquid overlay. The test compound was diluted to give the following series of concentrations: 200, 60, 20, 6 . . . 0.06 μg/ml; final concentrations in the assay ranged, therefore, between 100 μg/ml and 0.03 μg/ml. The infected cultures were incubated at 37° C. in a humidified atmosphere of 5% CO2 until plaques were clearly visible (usually 1 day).
(§2) Cultures from 1 and 2 were fixed in formal saline, the agarose overlays were carefully washed off, and then the cell monolayers were stained with carbol fuchsin. A stereo microscope was used to count plaques. The IC50 (concentration of drug which inhibits the number of plaques formed by 50% relative to the number of plaques observed in virus control monolayers) of the test compound was calculated. In addition, the monolayers were examined for evidence of drug-induced cytotoxicity; the minimum concentration at which cytotoxicity occurs was recorded.

FIV = assay: Test for Feline Immunodeficiency Virus (FIV Glasgow 8) in Crandell Feline Kidney cells; settings: FIV Glasgow 8, Crandell Feline Kidney cells, 11-14 days, read-out: MIC (minimum concentration of drug inhibiting syncitial production)
Experimental: (§3) Drug stocks were diluted to the appropriate concentration, in medium (e.g. 10 mg/ml to 200 μg/ml). 150 μl of each drug was dispersed in triplicate, across the top row of a microtitre plate (150 μl of media for virus and cell control, vc and cc). 100 μl of medium was dispersed into all other wells. The wells were serially diluted moving down the plate, removing 50 μl from each well and transferring to the next row. 50 μl was discarded from the bottom wells.
(§4) Trypsinisation was carried out from a confluent cell monolayer of Crandell Feline Kidney cells, in 10% trypsin, followed by resuspension in media at 1×10^6 per ml, ensuring that a single cell suspension is achieved. (Media: 90% 1×RPMI, 25 mM hepes buffer; 10% Foetal calf serum; 2% Glutamine; 2% penecillin/streptomycin.)
(§5) FIV Glasgow 8 virus was diluted to 4× the required virus challenge in medium (40 TCID50 /ml). The virus infected medium was mixed with an equal volume of cell suspension, 100 μl of which was aliquoted into each well of the drug plate, except cell control. 100 μl of cell suspension at 5×10^4 per ml was added to the latter. This gives a final cell concentration of 2.5×10^4 per ml, and drug range 100-0.03 μg/ml. The plates were incubated at 37° C., 5% CO2 in an air humidified incabator for 11-14 days. The cells were fixed by immersing the plates in formoli saline (10% formaldehyde; 10% 1.5M NaCl; 80% water) for 1 hour minimum. The cells were stained with 10% crystal violet for 15 minutes.
(§6) The assay was scored by looking for presence of syncitia and, virus induced cytopathic effect in the cell monolayers, under a microscope. Results are given as the minimum concentration of drug inhibiting syncitial production, minimum inhibitory concentration, MIC.

CMV = assay: Plaque Reduction Test for Cytomegalovirus (AD-169 strain) in MRC-5 cells; settings: Human betaherpesvirus 5, AD169, MRC5
Experimental: MRC-5 cells were grown to confluence in 24 well multi-dishes (well diameter=1.5 cm). The drained cell monolayers were each infected with approximately 50 infectious particles of cytomegalovirus (CMV; AD-169 strain) in 100 μl of phosphate-buffered saline. The virus was adsorbed for 1 hour at room temperature. After adsorption, residual inoculum was removed from each well and replaced with 1 ml of Eagle's MEM containing 10% heat inactivated foetal calf serum and 0.9% agarose (A37). Once the agarose had set, dilutions of the test compound, which had been prepared in Eagle's MEM (containing 10% heat-inactivated calf serum), were added, each well receiving 1 ml of liquid overlay. The test compound was diluted to give the following series of concentrations: 200, 60, 20, 6 . . . 0.06 μg/ml; final concentrations in the assay range, therefore, between 100 μg/ml and 0.03 μg/ml. The infected cultures were incubated at 37° C. in a humidified atmosphere containing 5% CO2 until plaques were clearly visible (about 12 days). The cultures are fixed in formol saline, the agarose overlays were carefully washed off, and then the cell monolayers were stained with carbol fuchsin. A stereo microscope was used to count plaques. The IC50 (concentration of drug which inhibits the number of plaques formed by 50% relative to the number of plaques observed in virus control monolayers) of the test compound was calculated. In addition, the monolayers were examined for evidence of drug-induced cytotoxicity; the minimum concentration at which cytotoxicity occurs was recorded.

HSV-2 = assay: Plaque Reduction Test for Herpes Simplex Virus 2 (strain MS) in MRC-5 cells; settings: Human alphaherpesvirus 2, MRC5
Experimental: as §1, §2

VZV = assay: Plaque Reduction Test for Varicella-Zoster Virus (Ellen strain) in MRC-5 cells; settings: Human alphaherpesvirus 3, MRC5
Experimental: as §1, with “varicella zoster” for “herpes simplex”, “(VZV; Ellen strain)” for “1 (HSV-1; strain SC16) or herpes simplex virus 2 (HSV-2; strain MS)”, “heat-inactivated foetal” for “newborn”, “(5 or 6 days).” for “(usually 1 day).”
as §2

[1] = Cytotoxicity for the cell monolayers in the FIV test; settings: cat, crandell feline kidney cells
Experimental: as §3, §4, §5, §6

Visna Virus = assay: CPE Inhibition Test (Established Monolayer) for Lentiviruses, visna virus (strain K184) in sheep choroid plexus cells; settings: Visna-maedi virus; visna virus strain K184, SCP cells; read-out: MIC (minimum concentration giving complete protection of the cell monolayers)
Experimental: 3×10^4 sheep choroid plexus (SCP) cells were plated into individual wells of a 96 well microtitre plate in 100 μl of Eagle's MEM with Hanks' salts containing 10% heat inactivated foetal calf serum (FCS). When monolayers had become established (after 1 or 2 days growth) they were washed with 200 μl of maintenance medium (Eagle's MEM with Hanks' salts containing 0.5% FCS) and infected with 100 μl of visna virus (strain K184) in maintenance medium (30 TCID50/ml). Test samples were diluted with maintenance medium in further 96 well microtitre plates over the range 200-0.06 μg/ml by 3-fold dilution steps. 100 μl of the diluted samples was then transferred directly onto virus-infected monolayers (final concentration range therefore 100-0.03 μg/ml) and […] containing 5% CO2 until virus-induced CPE was maximal in the untreated virus-infected controls (usually 12-14 days). The plates were fixed with formal saline and stained with crystal violet. Virus-induced CPE was then scored microscopically and the minimum concentration of sample giving complete protection of the cell monolayers (MIC) determined.

HIV [2] = assay: HIV Suppression test, viral RNA (nucleic acid hybridisation) in peripheral human lymphocytes; settings: Human immunodeficiency virus 1, Lymphocyte, 96 h; Concn. 10 μM; read-out: % Inhibition on Day 4 after infection, Viral RNA
Experimental: (§7) Peripheral human lymphocytes were prepared, cultivated, and harvested as above. Following the determination of the lymphocyte surface markers, unstimulated and mitogen stimulated cells were combined in a ratio of 1:2.
(§8) Under safety conditions these cells are infected with a standard preparation of HIV. The cells are sedimented by centrifugation. The supernatant was discarded and cells were resuspended in the HIV inoculum.
(§9) This inoculum is a liquid suspension of HIV-1 strain virus, pretested and adjusted to a titer that results in a synthesis of viral core protein p24 of >100 ng/ml at day four following infection of human lymphocytes according to the protocol.
(§10) 3×10^8 lymphocytes were resuspended in 1 ml HIV inoculum and incubated at 37° C. for 60 minutes. Subsequently, the cells were washed two times with 50 ml of culture medium and resuspended in culture medium containing 10 units/ml of human recombinant interleukin-2 to yield a cell concentration of 2×10^6 cells/ml. 100 μof this cell suspension was added to each well of the microtiter plates containing the diluted solutions of the compounds. The microtiter plates were cultivated in an incubator with a humidified atmosphere and 5% CO2 at 37° C.
(§11) Accordingly, a fraction of lymphocytes was mock-infected with the same virus preparation that was heat inactivated (30 minutes at 56° C.) prior to infection.
(§12) On each of the days 2,3 and 4 post infection one of the microtiter plates which had been established in triplicate was prepared for determination of viral replication. Viral RNA is determined within the cells whereas the viral core protein p24 was detected in the supernatant of the lymphocyte culture.
(§13) Accordingly, 150 μl of supernatant were removed from each well and transferred to the well of a microtiter plate containing 50 μl/well of SDS (sodium dodecylsulfate, 0.08%). These plates were stored frozen. 50 μl of stop solution (1% SDS, 20 mM sodium acetate, pH 5.0, and 200 μg/ml heparin) were added to the cells remaining in each well. The plates were stored frozen.
(§14) The concentration of p24 synthesized by the HIV infected cells was determined by means of a sandwich ELISA, while the concentration of viral RNA was quantitated by nucleic acid hybridisation, using a ^32 P-labelled DNA probe for the gag/pol region of the viral genome. Absolute levels of viral antigen and RNA in drug treated samples were compared with untreated, virus-infected controls and the percentage inhibition calculated.

HIV [3] = assay: HIV Suppression test, viral antigen (core protein p24, sandwich ELISA) in peripheral human lymphocytes; settings: Human immunodeficiency virus 1, Lymphocyte, 96 h; Concn. 10 μM; read-out: % Inhibition on Day 4 after infection, Viral Antigen
Experimental: as §7, §8, §9, §10, §11, §12, §13, §14

[4] = read-out: concentration at which cytotoxicity was noted
[5] = no cytotoxicity noted with concentrations up to this value, read-out: cytotoxicity for the cell monolayers

Row | SMILES | IC50 (HSV-1) | MIC (FIV) | IC50 (CMV) | IC50 (HSV-2) | IC50 (VZV) | MCC [1, 4] | MIC (Visna Virus) | inhibition at 10 µM (HIV [2]) | inhibition at 10 µM (HIV [3]) | MCC [1, 5]
1 | Nc1ncnc2c1ncn2CC(/C=C/P(=O)(O)O)CO (stereo not drawn) [Example 17, (E)-9-(2-Hydroxymethyl-4-phosphonobut-3-enyl)adenine] | 20 µg/mL (≈ 66.8 µM) | 0.03 µg/mL (≈ 0.1 µM) | 11 µg/mL (≈ 36.8 µM) | 29 µg/mL (≈ 96.9 µM) | < 3 µg/mL | 10 µg/mL |  |  |  | 
2 | Nc1ncnc2c1ncn2CC/C=C/P(=O)(O)O [Example 5, (E)-9-[4-Phosphonobut-3-enyl]adenine] |  |  |  |  |  |  | 1 µg/mL (≈ 3.71 µM) |  |  | 
3 | Nc1nc2c(ncn2OCC/C=C\P(=O)(O)O)c(=O)[nH]1 [Example 11, (Z)-9-(4-phosphonobut-3-enyloxy)guanine] | 100 µg/mL (≈ 332 µM) |  | 55 µg/mL (≈ 183 µM) | > 100 µg/mL | > 100 µg/mL |  | < 0.03 µg/mL | 33% | 3% | 
4 | Nc1ncnc2c1ncn2OCC(/C=C/P(=O)(O)O)CO (stereo not drawn) [Example 15, (E)-9-(2-hydroxymethyl-4-phosphonobut-3-enyloxy) adenine] |  | 30 µg/mL (≈ 95.2 µM) |  |  |  |  |  |  |  | > 100 µg/mL
5 | Nc1nc2c(ncn2OCC(/C=C/P(=O)(O)O)CO)c(=O)[nH]1 (stereo not drawn) [Example 13, (E)-9-(2-hydroxymethyl-4-phosphonobut-3-enyloxy)guanine] | 100 µg/mL (≈ 302 µM) | 0.1 µg/mL (≈ 0.302 µM) | 15 µg/mL (≈ 45.3 µM) | 60 µg/mL (≈ 181 µM) | 5 µg/mL (≈ 15.1 µM) | 1 µg/mL |  |  |  | 
6 | Nc1nc(N)c2ncn(CC/C=C/P(=O)(O)O)c2n1 [Example 8, (E)-2,6-Diamino-9-(4-phosphonobut-3-enyl)purine] |  |  |  |  |  |  | 0.3 µg/mL (≈ 1.06 µM) | 62% | 37% | 
7 | Nc1nc2c(ncn2CC/C=C/P(=O)(O)O)c(=O)[nH]1 [Example 6, (E)-9-[4-phosphonobut-3-enyl]guanine] | 100 µg/mL (≈ 351 µM) |  | 15 µg/mL (≈ 52.6 µM) | 26 µg/mL (≈ 91.2 µM) | 55 µg/mL (≈ 193 µM) |  | 0.1 µg/mL (≈ 0.351 µM) |  |  | 
8 | Nc1ncnc2c1ncn2OCC/C=C\P(=O)(O)O [Example 10, (Z)-9-(4-Phosphonobut-3-enyloxy) adenine] |  |  |  |  |  |  | 100 µg/mL (≈ 351 µM) |  |  | 
9 | Nc1ncnc2c1ncn2OCC/C=C/P(=O)(O)O [Example 3, (E)-9-(4-phosphonobut-3-enyloxy)adenine] |  | 10 µg/mL (≈ 35.1 µM) |  |  |  |  | 10 µg/mL (≈ 35.1 µM) | 44% | 47% | > 100 µg/mL
